According to patent US6391566B1, “Ionotropic human glutamate receptor subunit NR3” (NPS Allelix Corporation, priority 1992, dated 2002):

Tests used:
Assay type in all cases: cell-based
[1] = biological target: T1, NR3-1/NMDAR1-3C heteromeric complex (Homo sapiens, UniProt Q05586+Q13224); test: Whole-cell voltage-clamp recording of NMDA-evoked currents in transiently transfected HEK293 cells (heteromeric expression); conditions: 60 μM NMDA
T1 construct: expressed in transfected cells; host or cells: HEK293 (transient, lipofectamine)
T1 sequence (Q13224 27-1484, other chains not shown): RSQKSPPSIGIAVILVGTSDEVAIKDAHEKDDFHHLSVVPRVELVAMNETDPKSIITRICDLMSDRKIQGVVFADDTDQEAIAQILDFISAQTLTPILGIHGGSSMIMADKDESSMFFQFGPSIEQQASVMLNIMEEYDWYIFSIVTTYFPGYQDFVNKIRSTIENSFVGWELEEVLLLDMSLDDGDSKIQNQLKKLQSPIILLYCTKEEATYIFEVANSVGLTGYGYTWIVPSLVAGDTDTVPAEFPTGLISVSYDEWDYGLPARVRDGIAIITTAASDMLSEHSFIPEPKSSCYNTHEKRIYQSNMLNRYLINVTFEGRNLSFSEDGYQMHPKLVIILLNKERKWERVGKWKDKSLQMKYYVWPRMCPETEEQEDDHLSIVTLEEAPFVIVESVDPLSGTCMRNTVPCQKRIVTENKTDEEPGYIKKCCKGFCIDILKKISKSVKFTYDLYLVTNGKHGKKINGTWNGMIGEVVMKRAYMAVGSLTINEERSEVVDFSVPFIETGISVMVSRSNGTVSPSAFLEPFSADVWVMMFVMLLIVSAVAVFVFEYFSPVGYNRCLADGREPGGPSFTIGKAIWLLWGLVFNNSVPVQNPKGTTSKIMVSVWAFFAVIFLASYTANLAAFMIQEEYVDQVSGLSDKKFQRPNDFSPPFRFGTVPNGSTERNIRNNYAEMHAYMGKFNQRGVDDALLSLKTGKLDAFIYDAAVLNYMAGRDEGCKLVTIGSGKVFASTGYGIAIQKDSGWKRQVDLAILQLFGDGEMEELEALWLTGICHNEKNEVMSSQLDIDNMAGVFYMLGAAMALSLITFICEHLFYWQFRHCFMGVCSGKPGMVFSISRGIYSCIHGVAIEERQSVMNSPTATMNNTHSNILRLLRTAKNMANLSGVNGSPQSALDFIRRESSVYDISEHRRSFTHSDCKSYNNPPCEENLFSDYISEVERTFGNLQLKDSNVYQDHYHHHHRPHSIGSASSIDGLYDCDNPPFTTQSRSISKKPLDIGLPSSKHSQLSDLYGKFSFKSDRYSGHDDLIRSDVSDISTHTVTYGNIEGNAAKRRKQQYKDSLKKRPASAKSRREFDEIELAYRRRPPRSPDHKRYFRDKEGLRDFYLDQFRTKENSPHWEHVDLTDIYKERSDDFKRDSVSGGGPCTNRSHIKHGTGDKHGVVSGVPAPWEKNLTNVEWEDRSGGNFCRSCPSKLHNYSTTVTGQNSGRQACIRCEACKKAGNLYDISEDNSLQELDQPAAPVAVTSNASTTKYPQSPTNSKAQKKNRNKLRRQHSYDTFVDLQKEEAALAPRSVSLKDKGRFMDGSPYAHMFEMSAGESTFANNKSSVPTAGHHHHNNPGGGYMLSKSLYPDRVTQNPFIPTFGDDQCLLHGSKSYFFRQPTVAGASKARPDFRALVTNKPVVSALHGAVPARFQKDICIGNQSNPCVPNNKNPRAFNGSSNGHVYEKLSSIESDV
Protocol: (§1) For transient expression, HEK293 cells were transfected with approximately 0.4 μg DNA (as pcDNA1-Amp/hNR3 or pcDNA1-Amp/hNR1-3C) per 10^5 HEK293 cells, by lipofectamine-mediated DNA transfection according to the manufacturer's (Life Technologies Inc., Gaithersburg, Md.) specifications. In coexpression experiments, i.e. for heteromeric expression of NR3-1 and NMDAR1-3C, the HEK293 cells were similarly transfected with 0.8 μg of a DNA mixture containing pcDNA1-Amp/hNR3 and pcDNA1-Amp/hNR1-3C. Briefly, HEK293 cells were plated at a density of 10^5 cells/dish and then grown for 24 hours in 10% FBS-supplemented MEM medium (Life Technologies Inc., Gaithersburg, Md.). The medium was then removed and cells were washed in OPTI-MEM I medium (Life Technologies Inc.) lacking FBS, prior to transfection. A transfection solution (100 μl ) containing 2-4 μl of lipofectamine and DNA was then applied to the cells. After incubation for 4 hours at 37° C., cells were washed as previously described and then allowed to grow for 48 hours in 10% FBS-supplemented MEM medium containing 50 μM DL-AP5 (2-amino-5-phosphonopentanoic acid) and 50 μM 7-chlorokyneurinic acid prior to electrophysiological recording. […]

[2] = biological target: T2, NMDAR1-3C (Homo sapiens, UniProt Q05586); test: Whole-cell voltage-clamp recording of NMDA-evoked currents in HEK293 cells transfected with NMDAR1-3C alone; conditions: 60 μM NMDA; HEK293 cells transiently transfected with NMDAR1-3C alone; FIG. 10
T2 construct: expressed in transfected cells; host or cells: HEK293 (transient, lipofectamine)
Protocol: as §1

[3] = biological target: T3, NR3 (Homo sapiens, UniProt Q13224); test: Whole-cell voltage-clamp recording of NMDA-evoked currents in HEK293 cells transfected with NR3 alone; conditions: 60 μM NMDA; HEK293 cells transiently transfected with NR3 alone; FIG. 10
T3 construct: expressed in transfected cells; host or cells: HEK293 (transient, lipofectamine)
T3 sequence (Q13224 27-1484): as the sequence (Q13224 27-1484, other chains not shown) above
Protocol: as §1

Row | SMILES | block of NMDA-induced currents ([1]; 1 mM MgCl2, HEK293 cells transfected with both NR3-1 and NMDAR1-3C) | NMDA-induced depolarizations ([1]; HEK293 cells transiently transfected with both NR3-1 and NMDAR1-3C, FIG. 10) | NMDA-induced depolarizations [2] | NMDA-induced depolarizations [3]
1 | [Cl-].[Cl-].[Mg+2] [MgCl2] | blocked |  |  | 
2 | CN[C@H](CC(=O)O)C(=O)O [NMDA, N-methyl-D-aspartate] |  | NMDA-induced depolarizations were, however, observed | No NMDA-induced depolarizations were observed | No NMDA-induced depolarizations were observed
